One may read the Kd as a measure of binding affinity in units of concentration.

In this assay the target is Serine/threonine-protein kinase mTOR (Homo sapiens) (UniProt P42345). Description: mTOR FRB domain ligand binding – biophysical, NMR (AID 1648). The note with it: NMR binding to FRB domain, chemical shift.

Calls of active or inactive are those of the source. The rule behind the calls is not given here.

Sequence of Serine/threonine-protein kinase mTOR (Homo sapiens) (P42345 2015-2114): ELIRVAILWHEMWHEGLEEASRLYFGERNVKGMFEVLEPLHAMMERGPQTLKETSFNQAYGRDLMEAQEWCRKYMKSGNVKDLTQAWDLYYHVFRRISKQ

Regarding `O=C(O)C1CC(=O)N(Cc2cccs2)C1` (stereo unspecified), the Kd is > 4 mM (inactive).
For the compound `CC(=O)NC(O)C(=O)c1cccs1` (stereo unspecified), the Kd was > 4 mM (inactive).
With `C=C1CCC(=O)C(C)CCC2C1CC2(C)C` (stereo unspecified), the Kd was > 4 mM (inactive).
For the compound `CCSc1nc(C)c(CC)c(C)c1C(N)=O`, the Kd is > 4 mM (inactive).
Regarding `Cc1cc(Oc2ccccc2)nc(N)n1`, the Kd was > 4 mM (inactive).
`Cc1c(C(=O)Nc2cnccn2)oc2ccccc12`: the Kd is > 4 mM (inactive).
Consider `Cc1cc(C(=O)Nc2ccccn2)no1`, for which the Kd was > 4 mM (inactive).
For the compound `c1ccc(-n2ncc3c(NCc4ccco4)ncnc32)cc1`, the Kd is > 4 mM (inactive).
For the compound `Oc1cc(O)c2c(c1)O[C@H](c1ccc(O)c(O)c1)[C@H](O)C2`, the Kd was > 4 mM (inactive).
`O=S(=O)(Nc1cccnc1Cl)c1ccccc1`: the Kd was > 4 mM (inactive).
With `c1ccc(-n2nnnc2Oc2cccc3cccnc23)cc1`, the Kd was > 4 mM (inactive).
Take `O=c1nc(N2CCCCC2)nc2n1CCO2`: the Kd is > 4 mM (inactive).
As to `O=C(Nc1cccc2ncccc12)c1cccnc1`, the Kd is > 4 mM (inactive).
For `Cc1nn2c3ccccc3nc2n(Cc2ccccc2)c1=O`, the Kd was > 4 mM (inactive).
`CC(=O)N1CCc2ccccc2C1CC(=O)O` (stereo unspecified): the Kd was > 4 mM (inactive).
Regarding `CC(C)(C)C(=O)Nc1ncc(C(F)(F)F)cc1Cl`, the Kd was > 4 mM (inactive).
As to `Cc1cc(C(F)(F)F)n2nc(C(=O)O)c(Cl)c2n1`, the Kd was > 4 mM (inactive).
For `Cn1ccnc1SCc1cc(=O)[nH]c2ccccc12`, the Kd is > 4 mM (inactive).
Under `COc1ccc(-c2cc(=O)c3c(OC)c(OC)c(OC)c(OC)c3o2)cc1` stands > 4 mM (inactive); under `CS(=O)(=O)N1CCN(C(=O)c2ccccc2)CC1`, > 4 mM (inactive).
As for `Cc1onc(-c2ccccc2)c1CO`, the Kd was > 4 mM (inactive).
Turning to `O=C(O)C1CC(C2CCCCN2)CN2CCCCC12` (stereo unspecified), the Kd was > 4 mM (inactive).
Under `CN(C)S(=O)(=O)Nc1ccc(Br)cc1F` stands > 4 mM (inactive).
`COc1cccc(NC(=O)c2cnn(C)c2Cl)c1`: the Kd was > 4 mM (inactive).
With `Nc1ncnc2c1ncn2CCN1CCOCC1`, the Kd is > 4 mM (inactive).
In the case of `CC(=O)Nc1ccc(NC(C)=O)cc1`, the Kd was > 4 mM (inactive).
Consider `CNC(=S)Nc1ccc2c(c1)OCO2`, for which the Kd is > 4 mM (inactive).
Take `CC(=O)c1c(C)nc(-c2ccc(Cl)cc2Cl)n1O`: the Kd is > 4 mM (inactive).
In the case of `COc1ccccc1NS(=O)(=O)c1c[nH]c(=O)[nH]c1=O`, the Kd was > 4 mM (inactive).
As for `CC1=C(C(N)=O)C(c2ccccc2)NC(=O)N1` (stereo unspecified), the Kd is > 4 mM (inactive).
Turning to `NC(=O)c1ccsc1NC(=O)c1cccnc1`, the Kd was > 4 mM (inactive).
Under `Cc1noc(C)c1C(=O)NC1=NCCS1` stands > 4 mM (inactive); under `CC(=O)c1cc(C)ccc1OC(=O)c1cccnc1`, > 4 mM (inactive); under `CN1CN/C(=N\[N+](=O)[O-])N(c2ccccc2)C1`, > 4 mM (inactive).
Under `COC(=O)[C@@H]1OC(=O)C2OC23[C@@]1(C)CCC1[C@]2(C)C(C[C@@H](O)[C@]13C)C(C)(C)[C@H](OC(C)=O)C[C@@H]2OC(C)=O` (stereo partly specified) stands > 4 mM (inactive); under `NCc1cc2ccccc2s1`, > 4 mM (inactive).
Regarding `Cc1nc2ccccc2c(=O)[nH]1`, the Kd is > 4 mM (inactive).
In the case of `Cc1ccc(O)c(NC(=O)c2ccco2)c1`, the Kd is > 4 mM (inactive).
In the case of `CN1CCN(C(=O)C2CCCNC2)CC1` (stereo unspecified), the Kd is > 4 mM (inactive).
With `COc1ccc2cc3[n+](cc2c1OC)CCc1cc2c(cc1-3)OCO2`, the Kd was > 4 mM (inactive).
As to `CCc1sc(C(=O)NC)cc1Br`, the Kd is > 4 mM (inactive).
Under `Cc1c(C(=O)Nc2ccccc2)sc(N)c1C(N)=O` stands > 4 mM (inactive); under `O=C1C[C@@H](c2ccc(O)cc2)Oc2cc(O)cc(O)c21`, > 4 mM (inactive); under `O=C1CCC(=O)N1c1nc2ccccc2s1`, > 4 mM (inactive).
As to `OC1CCC(C(F)(F)F)CC1` (stereo unspecified), the Kd is > 4 mM (inactive).
Regarding `Cc1c(C)[n+](=O)c(-c2cccs2)c(C)n1[O-]`, the Kd is > 4 mM (inactive).
Regarding `COc1nc(C)ccc1-c1noc(-c2ccncc2)n1`, the Kd was > 4 mM (inactive).
As to `O=C1C=CC2=C3c4cc(O)c(O)cc4CC3(O)COC2=C1O` (stereo unspecified), the Kd was > 4 mM (inactive).
As to `CN(C)N1C(=O)C2C3C=CC(O3)C2C1=O` (stereo unspecified), the Kd was > 4 mM (inactive).
As for `CCC(C)C(=O)O[C@H]1[C@H](O)C2C(CN3CC(C)CCC3[C@@]2(C)O)C2C[C@]34O[C@]5(O)C(OC(=O)C(C)(O)CC)CC[C@@]3(C)C5C(OC(C)=O)[C@@H](OC(C)=O)C4[C@@]21O` (stereo partly specified), the Kd was > 4 mM (inactive).
For `CS(=O)(=O)Nc1nnc(Cc2ccccc2)s1`, the Kd is > 4 mM (inactive).
For `CCN(CC)c1nc2n(c(=O)n1)CCO2`, the Kd was > 4 mM (inactive).
Under `Cc1nn(C)c(C)c1NC(=S)NC1CCCC1` stands > 4 mM (inactive).
For `CSc1ccccc1NC(=O)c1cnccn1`, the Kd is > 4 mM (inactive).
As to `NC(=O)c1ccsc1NC(=O)c1ccco1`, the Kd was > 4 mM (inactive).
The value for `Cc1ccccc1NS(=O)(=O)c1ccc(F)cc1` was > 4 mM (inactive); that for `CCOC(=O)c1c(C)nc2cc(C)ccn12` was > 4 mM (inactive); that for `COC(=O)CCSCC(=O)Nc1nnc(C)s1` was > 4 mM (inactive).
As for `Nc1nc2c3ccccc3nc(Cc3ccccc3)n2n1`, the Kd is > 4 mM (inactive).
In the case of `CS(=O)(=O)N1CCC(C(=O)NC2CCCC2)CC1`, the Kd is > 4 mM (inactive).
Take `OC1CC(c2ccccc2)NC2(CCCC2)C1` (stereo unspecified): the Kd is > 4 mM (inactive).
Turning to `Cc1ccc2c(c1)CCCN2C(=O)c1ccncc1`, the Kd was > 4 mM (inactive).
Turning to `c1nnc2c3c4c(sc3ncn12)CCCC4`, the Kd was > 4 mM (inactive).
For the compound `O=C(NCc1ccccc1F)c1cccs1`, the Kd is > 4 mM (inactive).
Consider `COc1ccc(NC(=O)/C=N/O)cc1`, for which the Kd is > 4 mM (inactive).
Under `CC(=O)Nc1ccc(Nc2nnc(C)c(=O)[nH]2)cc1` stands > 4 mM (inactive).
With `O=C1NC(=O)C(C(=S)Nc2ccccc2)C(=O)N1`, the Kd is > 4 mM (inactive).
`O=C(N1CCOCC1)N1CCN(c2ccccn2)CC1`: the Kd is > 4 mM (inactive).
Consider `CC1(C)Cc2c(C#N)c(N)n(-c3ccccc3)c(=O)c2CO1`, for which the Kd is > 4 mM (inactive).
Consider `CC(=O)Oc1ccc(O)cc1`, for which the Kd was > 4 mM (inactive).
Under `CN1C(=O)C2CC=C(Cl)CC2C1=O` (stereo unspecified) stands > 4 mM (inactive); under `O=c1ccc2ccc(O)cc2o1`, > 4 mM (inactive); under `CCc1c(C(=O)Nc2ccncc2)csc1C`, > 4 mM (inactive).
Turning to `CCCCCCCCCCCCCc1ccco1`, the Kd is > 4 mM (inactive).
Under `NC(=O)CCS(=O)(=O)CCN1CCOCC1` stands > 4 mM (inactive).
As to `CN=C(C)c1c(O)n(C)c(=O)n(C)c1=O`, the Kd is > 4 mM (inactive).
Turning to `COn1c(=O)c(-c2ccco2)[n+]([O-])c2ccccc21`, the Kd was > 4 mM (inactive).
For the compound `CN(C)C(=O)Nc1ccc(F)cc1F`, the Kd is > 4 mM (inactive).
On to `CNC(=O)C(=O)Nc1c(C)cccc1C`, for which the Kd was > 4 mM (inactive).
Turning to `CNC(=O)C1CC(=O)N(c2ccc(O)cc2)C1` (stereo unspecified), the Kd is > 4 mM (inactive).
In the case of `Cc1cc(NC(=O)c2ocnc2C)no1`, the Kd was > 4 mM (inactive).
Under `Cc1cc2ncc(C(=O)Nc3ccccc3)c(C)n2n1` stands > 4 mM (inactive); under `COc1ccc(CC(=O)c2ccc(O)cc2O)cc1`, > 4 mM (inactive).
`Cc1csc2nc(N)nn12`: the Kd was > 4 mM (inactive).
As to `O=S1(=O)NC(=NCc2ccco2)c2ccccc21`, the Kd is > 4 mM (inactive).
For the compound `O=C1C2CCCCC2C(=O)N1c1ccc(O)cc1` (stereo unspecified), the Kd was > 4 mM (inactive).
Under `Cc1nn2c(-c3ccco3)nnc2c2ccccc12` stands > 4 mM (inactive); under `CC(C)(O)[C@@H]1Cc2cc3ccc(=O)oc3cc2O1`, > 4 mM (inactive).
The value for `S=c1nc(Cc2ccccc2)[nH][nH]1` was > 4 mM (inactive); that for `N#Cc1cc2ccccc2nc1N` was > 4 mM (inactive); that for `CCSc1nc2ccccc2n1CC(N)=O` was > 4 mM (inactive).
In the case of `OC(c1ccccc1)c1ccccn1` (stereo unspecified), the Kd was > 4 mM (inactive).
In the case of `CNC(=S)Nc1ncn(Cc2cccc(F)c2)n1`, the Kd was > 4 mM (inactive).
For the compound `NC(CC(=O)O)c1ccccc1` (stereo unspecified), the Kd was > 4 mM (inactive).
On to `O=c1c(-c2cc(O)c(O)c(O)c2)coc2cc(O)c(O)c(O)c12`, for which the Kd was > 4 mM (inactive).
The value for `CN1CCN(C(=S)c2ccc(N(C)C)cc2)CC1` was > 4 mM (inactive); that for `COc1cc(O)c(C(C)=O)c(OC)c1` was > 4 mM (inactive).
On to `Oc1cccc2[nH]ccc12`, for which the Kd is > 4 mM (inactive).
In the case of `Nc1cc(C(F)(F)F)ccc1N1CCOCC1`, the Kd was > 4 mM (inactive).
Under `O=c1ccc2ccccc2o1` stands > 4 mM (inactive).
Regarding `CC(NC(=O)c1cccnc1)c1ccc2c(c1)OCO2` (stereo unspecified), the Kd was > 4 mM (inactive).
As to `O=C(Cn1cnc2ccccc2c1=O)N1CCOCC1`, the Kd was > 4 mM (inactive).
Under `Cc1nnc2n(c1=O)N=C(c1ccccc1)CS2` stands > 4 mM (inactive); under `Cc1nc(-c2cc(C(=O)O)no2)cs1`, > 4 mM (inactive); under `CS(=O)(=O)N1CCN(C(=O)c2ccccc2)C1`, > 4 mM (inactive).
With `O=C(O)C1(O)C[C@@H](O)C(O)[C@H](O)C1` (stereo partly specified), the Kd was > 4 mM (inactive).

Source of the values: PubChem BioAssay AID1648 (Sanford-Burnham Center for Chemical Genomics, 2009).
